In ChEMBL document CHEMBL1201862, “PubChem BioAssay data set” (2004):
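Cells were grown in 96-well plates and exposed to each compound for 48 hours at five concentrations; endpoints were interpolated linearly between bracketing concentrations, or set to the highest concentration if not reached. The concentration for 50% growth inhibition is given as GI50.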 Activity calls are given as the source filed them. Cut-off read from the data, not from the text of the source: active = GI50 up to about 1.1 µM and inactive = higher.

Key:
Test in all cases: NCI-60 cell line screen, 48 h
A498 = system: A498
CCRF-CEM = system: CCRF-CEM
EKVX = system: EKVX
HCT-15 = system: HCT-15
HT-29 = system: HT-29
K562 = system: K562
LOX IMVI = system: LOX IMVI
MOLT-4 = system: MOLT-4
OVCAR-3 = system: OVCAR-3
OVCAR-4 = system: OVCAR-4
OVCAR-5 = system: OVCAR-5
RPMI-8226 = system: RPMI-8226
SF-295 = system: SF-295
SNB-19 = system: SNB-19
SW-620 = system: SW-620
UO-31 = system: UO-31
HOP-92 = system: HOP-92
SK-OV-3 = system: SK-OV-3
SNB-75 = system: SNB-75
Malme-3M = system: Malme-3M

| SMILES | GI50 (A498) | GI50 (CCRF-CEM) | GI50 (EKVX) | GI50 (HCT-15) [µM] | GI50 (HT-29) | GI50 (K562) | GI50 (LOX IMVI) | GI50 (MOLT-4) | GI50 (OVCAR-3) | GI50 (OVCAR-4) | GI50 (OVCAR-5) | GI50 (RPMI-8226) | GI50 (SF-295) | GI50 (SNB-19) | GI50 (SW-620) | GI50 (UO-31) | GI50 (HOP-92) | GI50 (SK-OV-3) | GI50 (SNB-75) | GI50 (Malme-3M) |
| --- | --- | --- | --- | --- | --- | --- | --- | --- | --- | --- | --- | --- | --- | --- | --- | --- | --- | --- | --- | --- |
| COc1ccc(C(=C(C#N)C#N)c2ccc(OC)cc2)cc1 | > 100 µM (inactive) | 33 µM (inactive) | > 100 µM (inactive) | > 100 | > 100 µM (inactive) | > 100 µM (inactive) | > 100 µM (inactive) | > 100 µM (inactive) | > 100 µM (inactive) | > 100 µM (inactive) | > 100 µM (inactive) | > 100 µM (inactive) | > 100 µM (inactive) | > 100 µM (inactive) | > 100 µM (inactive) | > 100 µM (inactive) |  |  |  |  |
| NC(=O)/N=C1/CCC2C3CCCC2C13 |  | > 100 µM (inactive) | > 100 µM (inactive) |  | > 100 µM (inactive) | > 100 µM (inactive) | > 100 µM (inactive) | > 100 µM (inactive) | > 100 µM (inactive) | > 100 µM (inactive) | > 100 µM (inactive) | > 100 µM (inactive) | > 100 µM (inactive) | > 100 µM (inactive) | > 100 µM (inactive) | > 100 µM (inactive) | > 100 µM (inactive) | > 100 µM (inactive) | > 100 µM (inactive) |  |
| COP(=O)(OC)C(N)Cc1c[nH]c2ccccc12 (configuration not stated) | > 100 µM (inactive) |  |  | > 100 | > 100 µM (inactive) | > 100 µM (inactive) | > 100 µM (inactive) | > 100 µM (inactive) | > 100 µM (inactive) | > 100 µM (inactive) | > 100 µM (inactive) | > 100 µM (inactive) | > 100 µM (inactive) | > 100 µM (inactive) | > 100 µM (inactive) | > 100 µM (inactive) |  | > 100 µM (inactive) | > 100 µM (inactive) |  |
| C[N+](C)(C)CC(=O)NC(=O)N/N=C\C(CC#N)CN(Cc1ccccc1)Cc1ccccc1 (configuration not stated) | > 100 µM (inactive) | > 100 µM (inactive) | > 100 µM (inactive) | > 100 | > 100 µM (inactive) | > 100 µM (inactive) | > 100 µM (inactive) | > 100 µM (inactive) | > 100 µM (inactive) | > 100 µM (inactive) | > 100 µM (inactive) |  | 38 µM (inactive) | > 100 µM (inactive) | > 100 µM (inactive) | > 100 µM (inactive) |  | > 100 µM (inactive) | > 100 µM (inactive) | 58.2 µM (inactive) |
| CC1CC(C[N+](=O)[O-])CC2(C1)OCCO2 (configuration not stated) | > 100 µM (inactive) | > 100 µM (inactive) |  | > 100 |  | > 100 µM (inactive) |  | > 100 µM (inactive) | > 100 µM (inactive) | > 100 µM (inactive) |  | > 100 µM (inactive) |  | > 100 µM (inactive) | > 100 µM (inactive) | > 100 µM (inactive) |  | > 100 µM (inactive) | > 100 µM (inactive) | > 100 µM (inactive) |
| CC[C@H]1CC(=O)c2c(cc3c(c2O)C(=O)c2ccccc2C3=O)[C@@]1(C#N)C(=O)OC(C)(C)C |  |  | 4.94 µM (inactive) | 2.07 | 3.37 µM (inactive) |  | 3.54 µM (inactive) | 2.33 µM (inactive) | 2.81 µM (inactive) |  | 10.3 µM (inactive) | 3.33 µM (inactive) | 4.47 µM (inactive) | 3.79 µM (inactive) | 3.65 µM (inactive) | 2.69 µM (inactive) | 9.31 µM (inactive) | 3.65 µM (inactive) | 4.1 µM (inactive) | 4.92 µM (inactive) |
| CN(C)CCNC(=O)c1cc2ccccc2c2nc3ccccc3nc12 | 1.14 µM (inactive) |  | 2.06 µM (inactive) | 0.522 | 0.536 µM (active) | 0.363 µM (active) | 0.413 µM (active) | 0.153 µM (active) | 2.1 µM (inactive) | 0.792 µM (active) | 1.94 µM (inactive) | 0.522 µM (active) | 0.575 µM (active) | 1.43 µM (inactive) | 0.484 µM (active) | 1.8 µM (inactive) |  | 4.97 µM (inactive) | 1.19 µM (inactive) | 0.818 µM (active) |
| Cn1c(=O)c(C#N)c(O)c2cc3ccccc3nc21 |  | > 100 µM (inactive) | > 100 µM (inactive) | > 100 |  | > 100 µM (inactive) | > 100 µM (inactive) | > 100 µM (inactive) |  | > 100 µM (inactive) |  | > 100 µM (inactive) | > 100 µM (inactive) | > 100 µM (inactive) | > 100 µM (inactive) | > 100 µM (inactive) | > 100 µM (inactive) | > 100 µM (inactive) | 44.1 µM (inactive) | > 100 µM (inactive) |
| CC(=O)OC1CC2CCN3C(=O)c4cc5c(cc4[C@H](C1OC(C)=O)C23)OCO5 (some centres not stated) |  | > 100 µM (inactive) | > 100 µM (inactive) | > 100 | > 100 µM (inactive) | > 100 µM (inactive) | > 100 µM (inactive) | > 100 µM (inactive) | > 100 µM (inactive) |  |  | > 100 µM (inactive) | > 100 µM (inactive) | > 100 µM (inactive) | > 100 µM (inactive) | > 100 µM (inactive) |  | > 100 µM (inactive) | > 100 µM (inactive) | > 100 µM (inactive) |
